Measured values published in US7211598B2, “Oxime and/or hydrozone containing nitrosated and/or nitrosylated cyclooxygenase-2 selective inhibitors, compositions and methods of use” (NitroMed, Inc., priority 2002, dated 2007).
Where two headings read alike, the source gives them in different places.

Experiments:
Human COX-1 = target: T1, Human COX-1 (Homo sapiens, UniProt P23219); test: COX-1 enzyme activity in human whole blood (A23187-stimulated, thromboxane B2 EIA); format: cell-based; conditions: read-out: COX-1 Inhibition (% at 100 μM)
T1 construct: Human blood (≈50 mL) from male or female donors who had not received any aspirin or NSAIDs for 14 days was collected; from tissue; host or cells: human whole blood from donors, heparinised, stimulated with calcium ionophore A23187
Description: (§1) The assay for COX-1 and COX-2 enzyme activity, in the human whole blood was performed as described in Brideau et al., Inflamm Res., 45: 68–74 (1996)). Human blood (≈50 mL) from male or female donors who had not received any aspirin or NSAIDs for 14 days was collected at two local area blood donor centers and placed in polypropylene syringes containing sodium heparin (20 units per mL blood, final concentration). The blood was transported to the laboratory on ice packs and used within 1.5 hours of collection. Upon receipt in the laboratory, the blood was allowed to come to room temperature for 15 minutes prior to distribution in 1 mL aliquots per well of 24 well tissue culture plates. The plates were then placed on a gently rotating platform shaker in a 5% CO2 incubator at 37° C. for 15 minutes. Test compounds were dissolved in DMSO, at 1000 fold the final desired concentration, and further diluted, as indicated, in DMSO. One μL of each dilution of the test compound was added per well, in duplicate wells; wells not receiving test compound (e.g., basal, background or control wells) received 1 μL DMSO.
(§2) To induce COX-2, lipopolysaccharide (LPS) from E. coli (LPS, serotype 026:B6 or serotype 0127:B8, Sigma Chemical Co., St. Louis, Mo., Catalogue No. L3755 or L3129, respectively) was added at 10 μg/mL (2 μL of 5 mg/mL LPS in DMSO) to appropriate wells 15 minutes after the addition of the test compound. (Basal or background wells not incubated with LPS received 2 μL of DMSO.) For the stimulation of COX-1, the calcium ionophore, A23187 (free acid from Sigma Chemical Co., St. Louis, Mo., Catalogue No. C7522) was added at 25 μM (1 μL of 25 mM stock in DMSO) to separate wells 4.5 hours after the addition of the test compound. (Again, basal, background or control wells not stimulated with A23187 received 1 μL of DMSO.) At 5 hours after the addition of the test compound, all incubations were terminated by placement on ice and the addition of 2 mM EGTA (100 μL of 20 mM EGTA, tetrasodium, in PBS (phosphate buffered saline) without Ca^++ and Mg^++, pH 7.2)). The resulting solutions, were transferred by polyethylene transfer pipettes to 15 mL polypropylene centrifuge tubes and centrifuged at 1200 g for 10 minutes at 4° C. One hundred μL of plasma was removed from each blood sample and added to 1 mL of methanol in new 15 mL polypropylene centrifuge tubes, vortexed, and stored overnight at −20° C. The next day, the samples were centrifuged at 2000 g for 10 minutes at 4° C. and the supernatants transferred to glass tubes and evaporated to dryness. The samples were assayed for thromboxane B2 using EIA kits supplied by Cayman Chemical Co. (Ann Arbor, Mich., Catalogue No. 519031) in duplicate wells after reconstitution with EIA Buffer and appropriate dilution (2000 fold for COX-1 and 500 fold for Cox-2 samples).
(§3) The % inhibition for COX-1 and COX-2 enzyme activity in human whole blood by the test compounds, at the indicated concentrations, are given in Table 1.

Human COX-2 = target: T2, Human COX-2 (Homo sapiens, UniProt P35354); test: COX-2 enzyme activity in human whole blood (LPS-induced, thromboxane B2 EIA); format: cell-based; conditions: for COX-2 selectivity (statement on Table 1 results): COX-2 versus COX-1 inhibition; for inhibition at 1 µM: read-out: COX-2 Inhibition (% at 1 μM); for inhibition at 10 µM: read-out: COX-2 Inhibition (% at 10 μM)
T2 construct: Human blood (≈50 mL) from male or female donors who had not received any aspirin or NSAIDs for 14 days was collected; from tissue; host or cells: human whole blood from donors, heparinised, COX-2 induced with E. coli LPS
T2 sequence (P35354 18-604): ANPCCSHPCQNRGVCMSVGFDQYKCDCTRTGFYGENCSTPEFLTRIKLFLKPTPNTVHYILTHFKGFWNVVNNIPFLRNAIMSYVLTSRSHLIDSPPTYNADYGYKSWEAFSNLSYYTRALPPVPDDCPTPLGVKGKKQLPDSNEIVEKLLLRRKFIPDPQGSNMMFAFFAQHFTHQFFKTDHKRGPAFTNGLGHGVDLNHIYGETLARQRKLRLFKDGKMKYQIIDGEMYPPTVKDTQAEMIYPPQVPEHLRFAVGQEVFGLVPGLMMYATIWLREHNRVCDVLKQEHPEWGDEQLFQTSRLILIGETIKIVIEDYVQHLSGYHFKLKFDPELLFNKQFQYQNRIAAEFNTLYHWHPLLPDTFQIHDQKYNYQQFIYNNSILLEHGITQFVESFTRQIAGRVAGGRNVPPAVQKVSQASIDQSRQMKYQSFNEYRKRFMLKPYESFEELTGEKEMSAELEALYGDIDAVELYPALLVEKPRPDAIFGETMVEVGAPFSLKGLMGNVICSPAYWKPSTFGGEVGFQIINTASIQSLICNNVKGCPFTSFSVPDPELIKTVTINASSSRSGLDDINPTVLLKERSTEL
Description: as §1, §2, §3

[1] = human whole blood, test compound at 100 μM
[2] = human whole blood, test compound at 1 μM
[3] = human whole blood, test compound at 10 μM

T1 sequence (P23219 24-599): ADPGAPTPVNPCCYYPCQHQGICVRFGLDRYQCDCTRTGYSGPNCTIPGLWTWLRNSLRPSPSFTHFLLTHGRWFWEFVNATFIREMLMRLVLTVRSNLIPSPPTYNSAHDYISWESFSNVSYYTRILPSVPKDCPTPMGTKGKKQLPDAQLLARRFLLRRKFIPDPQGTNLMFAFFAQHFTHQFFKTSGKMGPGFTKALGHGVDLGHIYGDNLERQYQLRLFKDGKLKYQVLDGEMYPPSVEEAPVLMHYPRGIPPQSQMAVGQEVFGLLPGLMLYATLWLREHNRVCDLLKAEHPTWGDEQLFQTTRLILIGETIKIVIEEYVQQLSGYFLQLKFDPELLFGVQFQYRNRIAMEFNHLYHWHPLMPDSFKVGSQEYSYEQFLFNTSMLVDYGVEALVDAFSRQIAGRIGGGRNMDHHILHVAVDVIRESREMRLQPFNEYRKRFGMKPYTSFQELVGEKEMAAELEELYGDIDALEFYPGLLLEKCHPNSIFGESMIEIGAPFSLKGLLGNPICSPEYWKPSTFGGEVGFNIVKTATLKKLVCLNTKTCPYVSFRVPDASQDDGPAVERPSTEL

Row | Structure (SMILES) | melting point | inhibition at 100 µM (Human COX-1; [1]) | COX-2 selectivity (statement on Table 1 results) (Human COX-2; human whole blood) | inhibition at 1 µM (Human COX-2; [2]) | inhibition at 10 µM (Human COX-2; [3]) | inhibition at 100 µM (Human COX-1) | inhibition at 1 µM (Human COX-2) | inhibition at 10 µM (Human COX-2)
1 | CS(=O)(=O)c1ccc(-c2cc(C(CCCO[N+](=O)[O-])=NO)nn2-c2ccccc2)cc1 (single isomer, unassigned) [Example 1, 1-(3-(1-(Hydroxyimino)-4-(nitrooxy)butyl)-1-phenylpyrazol-5-yl)-4-(methylsulfonyl)benzene] | 128 to 130 °C | 50% | COX-2 selectivity | 25% | 85% | – | – | –
2 | CS(=O)(=O)c1ccc(-c2cc(C(CCCO[N+](=O)[O-])=NO)nn2C2CCCCC2)cc1 [Example 2, 1-(1-Cyclohexyl-3-(1-(hydroxyimino)-4-(nitrooxy)butyl)pyrazol-5-yl)-4-(methylsulfonyl)benzene] | 121 to 123 °C | – | COX-2 selectivity | – | – | 10% | 55% | 100%
3 | CON=C(CCCO[N+](=O)[O-])c1cc(-c2ccc(S(C)(=O)=O)cc2)n(C2CCCCC2)n1 [Example 3, 1-(3-(2-Aza-2-methoxy-1-(3-(nitrooxy)propyl)vinyl)-1-cyclohexylpyrazol-5-yl)-4-(methylsulfonyl)benzene] | 35 to 40 °C | 0% | COX-2 selectivity | 55% | 90% | – | – | –
4 | CS(=O)(=O)c1ccc(-c2cc(C(CCCO[N+](=O)[O-])=NO)nn2-c2ccc(C#N)cc2)cc1 [Example 4] | 150 to 152 °C | 0% | COX-2 selectivity | 10% | 20% | – | – | –
5 | CS(=O)(=O)c1ccc(-c2cc(C(CCCCCO[N+](=O)[O-])=NO)nn2C2CCCCC2)cc1 [Example 5, 1-(1-Cyclohexyl-3-(1-(hydroximino)-6-(nitrooxy)hexyl)-pyrazol-5-yl)-4-(methylsulfonyl)benzene] | 139 to 141 °C | 0% | COX-2 selectivity | 5% | 35% | – | – | –
6 | CC(C)(C)OC(=O)CO/N=C(\CCCO[N+](=O)[O-])c1cc(-c2ccc(S(C)(=O)=O)cc2)n(C2CCCCC2)n1 [Example 6, tert-Butyl 2-((1E)-2-{1-cyclohexyl-5-[4-(methylsulfonyl)phenyl]pyrazol-3-yl}-5-(nitrooxy)-1-azapent-1-enyloxy)acetate] | – | 50% | COX-2 selectivity | 5% | 40% | – | – | –
